This note sets out measurements from the supplement of paper PMC12613149.

The nature of data set [1]: reversed-phase LC retention time (C18, 15 min MeOH gradient); higher = more hydrophobic / later elution. On the procedure: (§1)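 Reference mixture of environmental contaminants analysed by RP-LC (BEH C18, 50 °C; ESI+ with water/MeOH plus formic acid and ammonium formate, ESI- with ammonium bicarbonate) coupled to a timsTOF Pro 2 with trapped ion mobility in nitrogen (ramp/accumulation 100 ms). CCS was calibrated with Agilent tune mix (CCS compendium) and averaged over five injections at 0.5-500 ng/mL. The table reports the lowest-CCS (putative monomer) peak; retention times are on the same gradient.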

Data set [2] in a line: collision cross section (TIMS, N2 drift gas) of the primary ion; higher = larger gas-phase ion size. On the procedure:
as §1

[3] abbreviates: ionization mode: ESI-, ion species: [M-H]-.
[4] abbreviates: ionization mode: ESI+, ion species: [M+H]+.
Where [5] appears, read: ionization mode: ESI+, ion species: [M]+.

Where a name gives a salt, the structure may show the parent alone.

In the case of `O=C(O)C(F)(F)C(F)(F)C(F)(F)C(F)(F)F` [Perfluoropentanoic acid], the “reversed-phase LC retention time” value in data set [1] (setting [3]) is 10.9 min. Also, the collision cross section in data set [2] (setting [3]) amounted to 129.75 Å².
The like results for `CC(C)OC(=O)Nc1cccc(Cl)c1` [Chlorpropham] were, in that order, 14.7 min and 147.2 Å².
On to `CC(C)(C)Nc1nc(N)nc(Cl)n1` [Desethylterbutylazine], for which the “reversed-phase LC retention time” value in data set [1] (setting [4]) was 12 min. Moreover, the collision cross section in data set [2] (setting [4]) worked out at 144.23 Å².
Turning to `O=S(=O)(O)c1ccccc1` [Benzenesulfonic acid], in data set [1] (setting [3]), the “reversed-phase LC retention time” value was determined as 2.42 min. In addition, the collision cross section in data set [2] (setting [3]) is 125.05 Å².
As to `CC1(C)O[C@@H]2C[C@H]3[C@@H]4CCC5=CC(=O)C=C[C@]5(C)[C@H]4[C@@H](O)C[C@]3(C)[C@]2(C(=O)CO)O1` [Desonide], the “reversed-phase LC retention time” value in data set [1] (setting [4]) was determined as 13.6 min. In data set [2] (setting [4]), the collision cross section was found to be 200.7 Å².
Regarding `CC(C)(C)c1cc(-n2nc3ccccc3n2)c(O)c(C(C)(C)C)c1` [UV-320], the “reversed-phase LC retention time” value in data set [1] (setting [4]) was 19.7 min; in data set [1] (setting [3]), 20.9 min. In addition, the collision cross section amounted to 188.24 Å² in data set [2] (setting [4]) and 193.86 Å² in data set [2] (setting [3]).
As to `C[N+](C)(C)CC(O)CCl` (stereo not drawn) [(3-Chloro-2-hydroxypropyl)trimethylammonium], in data set [1] (setting [5]), the “reversed-phase LC retention time” value was 1.03 min. The compound also showed a collision cross section in data set [2] (setting [5]) of 127.94 Å².
With `C[C@H]1CCCC(=O)CCC/C=C/c2cc(O)cc(O)c2C(=O)O1` [Zearalenone], the “reversed-phase LC retention time” value in data set [1] (setting [3]) turned out to be 14.4 min. This compound also yielded a collision cross section in data set [2] (setting [3]) of 178.16 Å².
Consider `COc1ccc2nc(SCc3ncc(C)c(OC)c3C)[nH]c2c1` [Omeprazole sulfide], for which the figures for the “reversed-phase LC retention time” value in data set [1] (setting [4]) and in data set [1] (setting [3]) were 11.2 min and 13.9 min, respectively. Also, the figures for the collision cross section in data set [2] (setting [4]) and in data set [2] (setting [3]) were 179.62 Å² and 181.72 Å², respectively.
Turning to `CN(Cc1cnc2nc(N)nc(N)c2n1)c1ccc(C(=O)N[C@@H](CCC(=O)O)C(=O)O)cc1` [Methotrexate], the “reversed-phase LC retention time” value in data set [1] (setting [4]) turned out to be 7.82 min. In data set [2] (setting [4]), the collision cross section is on record as 197.21 Å².
The like results for `Cc1cc(Cc2ccc(N)c(C)c2)ccc1N` [4,4'-Methylene-bis(2-methyl aniline)] were, in that order, 8.47 min and 171.67 Å².
For the compound `CC(C)COP(=O)(OCC(C)C)OCC(C)C` [Tri-isobutylphosphate], the “reversed-phase LC retention time” value in data set [1] (setting [4]) was determined as 16.3 min. In data set [2] (setting [4]), this compound came in with a collision cross section of 165.01 Å².
On to `CCCCCCCCCCCCOS(=O)(=O)O` [Dodecyl sulfate], for which, in data set [1] (setting [3]), the “reversed-phase LC retention time” value was found to be 16.3 min. This compound also had a collision cross section in data set [2] (setting [3]) of 166.94 Å².
For `CCCCCCCCCCCCCC(=O)NCCC[N+](C)(C)CCCS(=O)(=O)O` [Amidosulfobetaine-14], in data set [1] (setting [5]), the “reversed-phase LC retention time” value is 16.9 min. The same compound showed a collision cross section in data set [2] (setting [5]) of 217.87 Å².
As to `CCc1cccc(C)c1N(C(=O)C(=O)O)C(C)COC` (stereo not drawn) [Metolachlor OA], the figures for the “reversed-phase LC retention time” value in data set [1] (setting [4]) and in data set [1] (setting [3]) were 12.7 min and 11.9 min, respectively. In addition, the collision cross section in data set [2] (setting [4]) worked out at 160 Å²; in data set [2] (setting [3]), 165.62 Å².
With `CN(C)CCCC1(c2ccc(F)cc2)OCc2cc(C#N)ccc21` (stereo not drawn) [Citalopram], the “reversed-phase LC retention time” value in data set [1] (setting [4]) was found to be 11.3 min. Besides, the collision cross section in data set [2] (setting [4]) turned out to be 182.06 Å².
Turning to `CCc1cccc(C)c1N(C(=O)C(=O)O)C(C)C(=O)O` (stereo not drawn), the “reversed-phase LC retention time” value in data set [1] (setting [3]) was determined as 7.53 min. Also, in data set [2] (setting [3]), the collision cross section came out at 159.41 Å².
Regarding `Cc1cc(Cc2cc(C)cc(C(C)(C)C)c2O)c(O)c(C(C)(C)C)c1` [2,2'-Methylenebis(6-tert-butyl-p-cresol)], in data set [1] (setting [3]), the “reversed-phase LC retention time” value is 18.8 min. The collision cross section in data set [2] (setting [3]) came to 196.67 Å².
The matching figures for `CC(c1ccc(O)cc1)(c1ccc(O)cc1)c1ccc(O)cc1` [1,1,1-Tris(4-hydroxyphenyl)ethane]: 12.4 min and 183.23 Å².
The like results for `Cc1cc(C(F)(C(F)(F)F)C(F)(F)F)ccc1NC(=O)c1cccc(I)c1C(=O)NC(C)(C)CS(C)(=O)=O` [Flubendiamide] were, in that order, 15.8 min and 222.96 Å².
`CNC(=O)Oc1cc(C)c(S(C)(=O)=O)c(C)c1` [Methiocarb sulfone]: the “reversed-phase LC retention time” value in data set [1] (setting [4]) stood at 9.59 min. Further, the collision cross section in data set [2] (setting [4]) worked out at 162.89 Å².
The like results for `CCCCC(CC)COC(=O)c1ccc(C(=O)OCC(CC)CCCC)c(C(=O)OCC(CC)CCCC)c1` (stereo not drawn) [Tris(2-ethylhexyl)trimellitate] were, in that order, 20.9 min and 258.93 Å².
For `O=C(O)C(F)(F)C(F)(F)C(F)(F)C(F)(F)C(F)(F)C(F)(F)C(=O)O` [Perfluorosuberic acid], in data set [1] (setting [3]), the “reversed-phase LC retention time” value worked out at 6.68 min. The compound also returned a collision cross section in data set [2] (setting [3]) of 143.37 Å².
For the compound `COC(=O)Nc1nc2ccc(C(=O)c3ccccc3)cc2[nH]1` [Mebendazole], the “reversed-phase LC retention time” value in data set [1] (setting [4]) worked out at 12.4 min; in data set [1] (setting [3]), 13 min. Also, the collision cross section is reported as 175.29 Å² in data set [2] (setting [4]) and 173.87 Å² in data set [2] (setting [3]).
With `COCCN(C(=O)CCl)c1c(C)cccc1C` [Dimethachlor], the “reversed-phase LC retention time” value in data set [1] (setting [4]) amounted to 13.3 min. Also, in data set [2] (setting [4]), the collision cross section was determined as 152.09 Å².
